Columns and labels:
[1] = human Thorough-QT study; ref Gintant, 2011; cited from earlier work
hERG [2] = target: hERG (Homo sapiens, UniProt Q12809)
hERG [3] = details: read-out: hERG IC50; ref FDA pharmacology review (022068s000_PharmR_P1.pdf); cited from earlier work

hERG, sequence (Q12809 whole entry): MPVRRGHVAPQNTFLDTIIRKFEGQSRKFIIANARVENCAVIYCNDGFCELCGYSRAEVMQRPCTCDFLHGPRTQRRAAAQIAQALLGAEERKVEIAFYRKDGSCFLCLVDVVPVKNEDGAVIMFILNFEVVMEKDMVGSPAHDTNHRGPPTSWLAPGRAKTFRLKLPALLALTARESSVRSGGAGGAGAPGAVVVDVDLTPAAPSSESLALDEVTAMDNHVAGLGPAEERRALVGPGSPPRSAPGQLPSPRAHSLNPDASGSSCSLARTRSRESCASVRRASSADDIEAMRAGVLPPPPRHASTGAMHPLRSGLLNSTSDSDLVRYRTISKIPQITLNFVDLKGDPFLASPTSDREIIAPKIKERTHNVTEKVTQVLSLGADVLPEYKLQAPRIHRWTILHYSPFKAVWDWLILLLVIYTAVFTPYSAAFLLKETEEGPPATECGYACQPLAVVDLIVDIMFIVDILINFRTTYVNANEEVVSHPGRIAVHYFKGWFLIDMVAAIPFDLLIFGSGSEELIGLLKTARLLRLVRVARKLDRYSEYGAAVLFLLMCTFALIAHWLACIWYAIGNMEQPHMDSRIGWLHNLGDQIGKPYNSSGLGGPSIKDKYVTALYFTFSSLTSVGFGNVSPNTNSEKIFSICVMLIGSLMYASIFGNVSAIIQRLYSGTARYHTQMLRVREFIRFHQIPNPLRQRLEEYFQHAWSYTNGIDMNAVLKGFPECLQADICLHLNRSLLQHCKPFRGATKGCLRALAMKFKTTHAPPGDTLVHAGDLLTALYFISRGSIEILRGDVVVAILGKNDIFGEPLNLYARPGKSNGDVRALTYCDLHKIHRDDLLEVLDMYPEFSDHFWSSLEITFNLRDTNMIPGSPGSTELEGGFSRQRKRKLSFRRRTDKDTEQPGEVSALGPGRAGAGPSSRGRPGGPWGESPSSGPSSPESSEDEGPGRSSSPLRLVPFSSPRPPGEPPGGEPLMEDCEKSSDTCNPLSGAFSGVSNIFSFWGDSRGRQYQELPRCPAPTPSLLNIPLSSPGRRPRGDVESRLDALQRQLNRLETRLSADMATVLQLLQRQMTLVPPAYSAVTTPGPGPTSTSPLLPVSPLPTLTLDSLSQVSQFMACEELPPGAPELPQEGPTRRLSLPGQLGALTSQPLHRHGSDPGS

SMILES | QTc prolongation observed in the TQT study [1] | Hill Log-logistic α (hERG [2]) | IC50 (hERG [3])
COc1cc2nc(N(C)CCCNC(=O)C3CCCO3)nc(N)c2cc1OC (centres unmarked) [Alfuzosin] | 7.7 ms |  | 
O=C(CCCN1CCC(O)(c2ccc(Cl)cc2)CC1)c1ccc(F)cc1 [Haloperidol] |  | 1.469 | 
Cc1cn(-c2cc(NC(=O)c3ccc(C)c(Nc4nccc(-c5cccnc5)n4)c3)cc(C(F)(F)F)c2)cn1 [Nilotinib] | 15.8 ms |  | […]
O=c1[nH]c2ccccc2n1C1CCN(CCCC(c2ccc(F)cc2)c2ccc(F)cc2)CC1 [Pimozide] |  | 1.586 | 
